Legend:
[1] = biological target: P-glycoprotein (P-gp, MDR1) (Homo sapiens, UniProt P08183); assay: in vitro; details: dog, MDCK-MDR1, pH 7.4
Method: MDR1-MDCK II cells (obtained from Piet Borst at the Netherlands Cancer Institute) were seeded onto Polycarbonate membranes (PC) in 96-well insert systems at 3.33×10^5 cells/mL until to 4-7 days for confluent cell monolayer formation.
Selected α2AR agonist from table 3s were diluted with the transport buffer (HBSS with 10.0 mM Hepes, pH7.4) from DMSO stock solution to a concentration of 2 μM (DMSO<1%) and applied to the apical or basolateral side of the cell monolayer. […] Permeation of the test compounds from A to B direction and/or B to A direction was determined in duplicate. Digoxin was tested at 10.0 μM from A to B direction and B to A direction in duplicate. The plate was incubated for 2.5 hours in CO2 incubator at 37.0±1.0° C., with 5.0% CO2 at saturated humidity without shaking. In addition, the efflux ratio of each compound was also determined. Test and reference compounds were quantified by LC/MS/MS analysis based on the peak area ratio of analyte/IS.
After transport assay, lucifer yellow rejection assay was applied to determine the cell monolayer integrity. Buffers were removed from both apical and basolateral chambers, followed by the addition of 75 μL of 100 μM lucifer yellow in transport buffer and 250 μL transport buffer in apical and basolateral chambers, respectively. The plate was incubated for 30 minutes at 37.0° C. with 5.0% CO2 and 95.0% relative humidity without shaking. After 30 minutes incubation, 20 μL of lucifer yellow samples were taken from the apical sides, followed by the addition of 60 μL of transport Buffer. And then 80 μL of lucifer yellow samples were taken from the basolateral sides. The relative fluorescence unit (RFU) of lucifer yellow was measured at 425/528 nm (excitation/emission) with an Envision plate reader.
The apparent permeability coefficient Papp (cm/s) was calculated using the equation: […]
wherein dCr/dt is the cumulative concentration of compound in the receiver chamber as a function of time (μM/s); Vr is the solution volume in the receiver chamber (0.075 mL on the apical side, 0.25 mL on the basolateral side); A is the surface area for the transport, i.e. 0.143 cm2 for the area of the monolayer; and C0 is the initial concentration in the donor chamber (μM).
The efflux ratio was calculated using the equation: […]

α2AAR = biological target: T1, α2AAR (Homo sapiens, UniProt P08913); assay: α2AAR binding assay ([3H]-RX 821002 radioligand); details: [3H]-RX 821002 0.5 nM, HEK293 membranes; read-out: α2A affinity (Ki)
T1 construct: host or cells: HEK293 (membranes)
T1 sequence (P08913 1-465): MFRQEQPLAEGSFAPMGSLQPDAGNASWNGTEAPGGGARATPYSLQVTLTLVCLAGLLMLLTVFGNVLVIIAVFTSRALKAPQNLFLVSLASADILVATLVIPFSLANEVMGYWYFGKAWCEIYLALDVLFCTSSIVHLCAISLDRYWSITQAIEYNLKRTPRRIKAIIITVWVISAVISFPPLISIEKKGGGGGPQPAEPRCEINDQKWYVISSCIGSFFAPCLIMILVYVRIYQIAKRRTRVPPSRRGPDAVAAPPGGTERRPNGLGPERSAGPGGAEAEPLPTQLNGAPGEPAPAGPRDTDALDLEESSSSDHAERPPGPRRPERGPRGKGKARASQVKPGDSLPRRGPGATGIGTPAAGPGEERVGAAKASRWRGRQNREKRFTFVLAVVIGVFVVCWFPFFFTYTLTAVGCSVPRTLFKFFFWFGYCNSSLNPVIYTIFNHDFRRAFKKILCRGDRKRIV

[2] = biological target: T2, α2AAR (α2A-adrenergic receptor) (Homo sapiens, UniProt P08913); assay: α2AAR FLIPR assay (agonist activity); format: cell-based; details: FLIPR, α2AAR cell line hosted in HEK293 cells; read-out: α2A agonist activity (EC50)
T2 construct: expressed in transfected cells; host or cells: HEK293
T2 sequence (P08913 1-465): T1 sequence (P08913 1-465)
Method in brief: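 HEK293 cells expressing α2AAR loaded with Fluo-4 Direct plus probenecid for 50 min at 37° C and 10 min at room temperature, then treated with serially diluted compounds.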

Sequence of P-glycoprotein (P-gp, MDR1) (P08183 whole entry): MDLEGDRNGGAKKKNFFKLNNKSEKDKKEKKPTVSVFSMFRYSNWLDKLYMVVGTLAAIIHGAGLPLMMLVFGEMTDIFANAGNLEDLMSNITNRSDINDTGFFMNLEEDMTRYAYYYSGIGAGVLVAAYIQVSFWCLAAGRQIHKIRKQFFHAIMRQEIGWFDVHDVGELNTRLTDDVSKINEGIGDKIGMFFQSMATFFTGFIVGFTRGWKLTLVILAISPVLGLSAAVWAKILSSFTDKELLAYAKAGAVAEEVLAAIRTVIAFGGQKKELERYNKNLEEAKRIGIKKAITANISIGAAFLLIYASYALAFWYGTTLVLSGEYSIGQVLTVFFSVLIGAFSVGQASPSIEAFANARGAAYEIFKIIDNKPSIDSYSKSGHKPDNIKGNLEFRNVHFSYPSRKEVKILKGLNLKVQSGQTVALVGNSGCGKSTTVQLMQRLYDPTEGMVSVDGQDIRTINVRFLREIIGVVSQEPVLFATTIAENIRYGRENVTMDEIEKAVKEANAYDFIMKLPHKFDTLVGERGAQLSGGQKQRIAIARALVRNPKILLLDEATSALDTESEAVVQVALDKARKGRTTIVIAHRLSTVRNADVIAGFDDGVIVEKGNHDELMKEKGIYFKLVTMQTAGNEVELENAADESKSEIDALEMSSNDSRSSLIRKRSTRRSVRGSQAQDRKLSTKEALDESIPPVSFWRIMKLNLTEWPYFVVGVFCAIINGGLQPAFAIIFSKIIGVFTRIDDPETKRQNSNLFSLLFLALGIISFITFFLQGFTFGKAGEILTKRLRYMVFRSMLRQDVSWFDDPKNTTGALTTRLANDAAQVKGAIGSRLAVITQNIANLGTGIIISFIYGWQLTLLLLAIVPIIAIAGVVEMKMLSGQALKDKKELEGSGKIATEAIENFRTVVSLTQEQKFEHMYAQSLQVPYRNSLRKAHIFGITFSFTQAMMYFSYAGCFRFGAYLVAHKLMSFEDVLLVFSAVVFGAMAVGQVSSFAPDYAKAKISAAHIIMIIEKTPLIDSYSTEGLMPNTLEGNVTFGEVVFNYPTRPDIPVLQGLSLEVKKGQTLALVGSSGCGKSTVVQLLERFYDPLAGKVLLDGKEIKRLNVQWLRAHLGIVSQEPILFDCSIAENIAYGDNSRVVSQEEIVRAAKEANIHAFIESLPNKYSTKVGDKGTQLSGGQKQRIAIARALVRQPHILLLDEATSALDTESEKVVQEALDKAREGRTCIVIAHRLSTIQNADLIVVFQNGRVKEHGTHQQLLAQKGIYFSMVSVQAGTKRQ

SMILES | efflux ratio at 2.5 h, 2 μM [1] | Ki (α2AAR) | EC50 [2]
Cc1cccc(C(c2c[nH]cn2)c2cccc(OCCNS(C)(=O)=O)c2F)c1C (stereo not drawn) [compound 55] | 26.4 | 10 to 50 nM | 10 to 50 nM
Brc1c(NC2=NCCN2)ccc2nccnc12 [Brimonidine, brimonidine, reference compound] | 0.83 | – | –
Cc1cccc(C(c2c[nH]cn2)c2cccc(C(N)=O)c2F)c1C (single isomer, unassigned) [45-B] | 14 | < 10 nM | 10 to 50 nM
CONC(=O)Nc1cccc(C(c2c[nH]cn2)c2cccc(C)c2C)c1 (stereo not drawn) [compound 72] | 32.9 | 10 to 50 nM | 10 to 50 nM
Cc1cccc(C(Cc2ccc(S(N)(=O)=O)cc2)c2c[nH]cn2)c1C (stereo not drawn) [compound 217] | 17.5 | < 10 nM | < 10 nM
Cc1cccc(C(c2cccc(NC(=O)CN3CCOCC3)c2)c2c[nH]cn2)c1C (stereo not drawn) [compound 81] | 62.5 | < 10 nM | 10 to 50 nM
Cc1cccc(C(c2c[nH]cn2)c2cccc(C(=O)NCC3CCOCC3)c2O)c1C (stereo not drawn) [compound 138] | 7.85 | < 10 nM | 10 to 50 nM
Cc1cccc(C(Cc2ccc(NC(=O)NC3COC3)cc2)c2c[nH]cn2)c1C (stereo not drawn) [compound 214] | 56.1 | < 10 nM | 10 to 50 nM
Cc1cccc(C(Cc2ccc(C(=O)NC3CCOCC3)c(F)c2)c2c[nH]cn2)c1C (stereo not drawn) [compound 187] | 2.6 | < 10 nM | 10 to 50 nM
Cc1cccc(C(c2cccc(C(=O)NOCC3CCOC3)c2)c2c[nH]cn2)c1C (stereo not drawn) [compound 95] | 102 | < 10 nM | 10 to 50 nM
Cc1cccc(C(c2cccc(NC(=O)CC[N+](C)(C)C)c2)c2c[nH]cn2)c1C (stereo not drawn) [compound 141] | 2.61 | 10 to 50 nM | 50 to 250 nM
Cc1cccc(C(Cc2cccc(NC(=O)CC3CCOCC3)c2)c2c[nH]cn2)c1C (stereo not drawn) [compound 108] | 72.2 | < 10 nM | 10 to 50 nM
Cc1cccc(C(c2cccc(NS(=O)(=O)CCC#N)c2)c2c[nH]cn2)c1C (stereo not drawn) [compound 74] | 93.5 | 10 to 50 nM | 50 to 250 nM
C[C@H]1O[C@@H](O[C@H]2[C@@H](O)C[C@H](O[C@H]3[C@@H](O)C[C@H](O[C@H]4CC[C@@]5(C)[C@H](CC[C@@H]6[C@@H]5C[C@@H](O)[C@]5(C)[C@@H](C7=CC(=O)OC7)CC[C@]65O)C4)O[C@@H]3C)O[C@@H]2C)C[C@H](O)[C@@H]1O [Digoxin, reference compound] | 13.7 | – | –
Cc1cccc(C(c2cccc(C(=O)NC3CCOCC3)c2)c2c[nH]cn2)c1C (single isomer, unassigned) [121-B] | 30.9 | < 10 nM | < 10 nM
CCS(=O)(=O)Nc1cccc(C(c2c[nH]cn2)c2cccc(C)c2C)c1 (stereo not drawn) [compound 67] | 29 | 10 to 50 nM | 10 to 50 nM
CNC(=O)c1ccc(CC(c2c[nH]cn2)c2cccc(C)c2C)cc1 (stereo not drawn) [compound 215] | 4.77 | < 10 nM | < 10 nM
Cc1cccc(C(Cc2ccc(C(N)=O)cc2)c2c[nH]cn2)c1C (stereo not drawn) [compound 163] | 9.08 | < 10 nM | 10 to 50 nM
Cc1cccc(C(c2cccc(NC(=O)OC3CCOC3)c2)c2c[nH]cn2)c1C (stereo not drawn) [compound 64] | 24.3 | 10 to 50 nM | 10 to 50 nM
COc1cc(CC(c2c[nH]cn2)c2cccc(C)c2C)ccc1C(=O)NC1CCOCC1 (stereo not drawn) [compound 213] | 4.92 | < 10 nM | < 10 nM
Cc1cccc(C(c2cccc(NC(=O)Cc3ccncc3)c2)c2c[nH]cn2)c1C (stereo not drawn) [compound 103] | 149 | 10 to 50 nM | 10 to 50 nM

SMILES | efflux ratio at 2.5 h, 2 μM [1] | Ki (α2AAR) | EC50 [2]
CONC(=O)c1cccc(C(c2c[nH]cn2)c2cccc(C)c2C)c1 (single isomer, unassigned) [1-B] | 51 | 50 to 250 nM | 10 to 50 nM
Cc1cccc(C(c2cccc(S(=O)(=O)NCC3CCOCC3)c2)c2c[nH]cn2)c1C (stereo not drawn) [compound 105] | 65.8 | < 10 nM | 10 to 50 nM
Cc1cccc(C(c2cccc(NC(=O)NC3CCOCC3)c2)c2c[nH]cn2)c1C (stereo not drawn) [compound 111] | 173 | 10 to 50 nM | 10 to 50 nM
Cc1cccc(C(Cc2ccc(C(=O)NC3CCOCC3)nc2)c2c[nH]cn2)c1C (stereo not drawn) [compound 186] | 3.38 | 10 to 50 nM | 10 to 50 nM
Cc1cccc(C(Cc2ccc(NC(=O)CC3CCOCC3)cc2)c2c[nH]cn2)c1C (stereo not drawn) [compound 165] | 14.8 | < 10 nM | < 10 nM
Cc1cccc(C(Cc2ccc(C(=O)NO)cc2)c2c[nH]cn2)c1C (stereo not drawn) [compound 219] | 26.9 | < 10 nM | < 10 nM
Cc1cccc(C(c2c[nH]cn2)c2cccc(C(N)=O)n2)c1C (stereo not drawn) [compound 56] | 11.5 | 10 to 50 nM | 10 to 50 nM
Cc1cccc(C(Cc2cccc(NS(=O)(=O)CC3CCOCC3)c2)c2c[nH]cn2)c1C (stereo not drawn) [compound 112] | 58.4 | < 10 nM | 10 to 50 nM
Cc1cccc(C(c2c[nH]cn2)c2cccc(C(=O)NCC3CCOCC3)c2F)c1C (single isomer, unassigned) [124-B] | 10.3 | < 10 nM | 10 to 50 nM
Cc1cccc(C(c2cccc(NC(=O)NC3CC3)c2)c2c[nH]cn2)c1C (stereo not drawn) [compound 109] | 94.8 | 10 to 50 nM | 10 to 50 nM
CC(=O)Nc1ccc(CC(c2c[nH]cn2)c2cccc(C)c2C)cc1 (stereo not drawn) [compound 190] | 4.91 | < 10 nM | 10 to 50 nM
CCc1cscc1C(c1cccc(NS(C)(=O)=O)c1)c1c[nH]cn1 (stereo not drawn) [compound 401] | 22 | < 10 nM | 10 to 50 nM
Cc1cccc(C(c2cccc(NC(=O)CC3CCOC3)c2)c2c[nH]cn2)c1C (stereo not drawn) [compound 73] | 96.1 | 10 to 50 nM | 10 to 50 nM
Cc1cccc(C(c2cccc(NC(=O)CC3CCOCC3)c2)c2c[nH]cn2)c1C (stereo not drawn) [compound 80] | 112 | < 10 nM | 10 to 50 nM
Cc1cccc(C(Cc2ccc(S(N)(=O)=O)c(F)c2)c2c[nH]cn2)c1C (stereo not drawn) [compound 208] | 8.88 | < 10 nM | < 10 nM
Cc1cccc(C(Cc2ccc(C(=O)N(C)C)cc2)c2c[nH]cn2)c1C (stereo not drawn) [compound 216] | 3.21 | < 10 nM | < 10 nM
Cc1cccc(C(Cc2ccc(NS(=O)(=O)C3CCOCC3)cc2)c2c[nH]cn2)c1C (stereo not drawn) [compound 158] | 23.7 | < 10 nM | 10 to 50 nM
Cc1cccc(C(c2cccc(C(=O)NCC3CCC(O)CC3)c2)c2c[nH]cn2)c1C (stereo not drawn) [compound 99] | 141 | 10 to 50 nM | 10 to 50 nM
Cc1cccc(C(Cc2ccc(C(N)=O)c(F)c2)c2c[nH]cn2)c1C (single isomer, unassigned) [156-B] | 2.86 | < 10 nM | < 10 nM
Cc1cccc(C(c2cccc(C(=O)NCC3CCOCC3)c2)c2c[nH]cn2)c1C (stereo not drawn) [compound 98] | 82.6 | – | –

From patent publication US20240374573A1, “IMIDAZOLE CONTAINING COMPOUNDS, DERIVATIVES THEREFORE, AND USES THEREOF” (AglaeaPharma Inc., priority 2023, published 2024)
